System: 324938-238-R-J1-PDC complex spheroid growth, % test/control
Experiment: Anticancer human tumor 324938-238-R-J1-PDC patient-derived bladder carcinoma cell line growth inhibition [AhR]
Conditions: for IC50: curve of first compound; for viability, T/C: stronger effect = lower value
From the text: Multicellular complex tumor spheroid response to aryl hydrocarbon receptor antagonists in combination with a variety of drugs and investigational agents in selected tumor cell lines
The current study was undertaken to assess response to aryl hydrocarbon receptor antagonists in combination with standard-of-care drugs and investigational agents in solid tumor complex spheroid models. Complex spheroids include a stromal component modeled by human endothelial cells (HUVEC) and fibroblasts modeled by human mesenchymal stem cells (MSCs). The concentration ranges selected for each drug and investigational agent were based upon clinically achievable concentrations if the clinical Cmax of the agent was known.
Compounds. The drugs and investigational agents: BAY 2416964 (NSC825713), GNF351 (NSC835774), CH-223191 (NSC835775), CPI-455 (NSC825282), aza-TdCyd (NSC777586), decitabine (NSC127716), belinostat (NSC758774), entinostat (NSC756642), pevonedistat (NSC761192), tazemetostat (NSC777109), talazoparib (NSC765396), olaparib (NSC753686), selinexor (NSC780203), nedisertib (M3814, NSC802822), bortezomib (NSC756655), venetoclax (NSC766270), doxorubicin (NSC123127), elimusertib (BAY189344, NSC800525), ceralasertib (AZD6738, NSC777638), TAK-243 (NSC785004), alisertib (NSC759677), etoposide (NSC141540), topotecan (NSC609699), eribulin (NSC707389), gemcitabine (NSC613327), carboplatin (NSC241240), cisplatin (NSC119875), and SN-38 (NSC673596) were obtained from the National Cancer Institute (NCI) Developmental Therapeutics Program Chemical Repository (32). The FDA-approved anticancer drug set is available from the Developmental Therapeutics Program at https://dtp.cancer.gov/organization/dscb/obtaining/available plates.htm. […] The stock solutions were prepared in dimethyl sulfoxide (DMSO, Sigma-Aldrich, St. Louis, MO, cat. D2650), except for the platinum compounds which were prepared in saline (Quality Biological, Gaithersburg, MD, cat. 114-055-101), at 800-fold the tested concentration and stored at -70 degrees C prior to their use. All drugs and investigational agents were tested over a range starting from a high concentration at or near the clinical Cmax and decreasing in half-log increments. If the clinical Cmax for an agent had not been determined, the highest concentration tested was 10 microM (Table 1).
Cell Culture. All cells were maintained in an incubator at 37 degrees C and 5% CO2 with 95% humidity. The PDC lines were cultured according to standard operating procedures established by the NCI PDMR (https://pdmr.cancer.gov). Briefly, all PDCs were thawed and cultured in Matrigel-coated flasks prepared with a working solution of 1X Ham's F-12 nutrient mix, without supplementation (Invitrogen, Waltham, MA, cat. 11765054), 100 U/mL penicillin-streptomycin (Invitrogen, cat. 15140122), and 2.5% Matrigel (Corning Inc., Corning, NY, cat. 354248) for the first three passages. All PDCs were cultured in complete DMEM/F-12 media containing advanced DMEM/F-12 (Invitrogen, cat. 12634028), 4.9% defined fetal bovine serum, heat inactivated (HyClone Laboratories Inc., Logan, UT, cat. SH30070.03HI), 389 ng/mL hydrocortisone (Sigma-Aldrich, cat. H4001), 9.7 ng/mL human EGF recombinant protein (Invitrogen, cat. PHG0313), 23.4 microg/mL adenine (Sigma-Aldrich, cat. A2786), 97.3 U/mL penicillin-streptomycin (Invitrogen, cat. 15140122), 1.9 mM L-glutamine (Invitrogen, cat. 25030081), and 9.7 microM Y-27632 dihydrochloride (Tocris Bioscience, Bristol, United Kingdom, cat. 1254). The PDCs were cultured in complete DMEM/F12 media without 10 microM Y-27632 dihydrochloride for at least two passages prior to the screen. The established cell lines NCI-H1341 and […] were cultured in DMEM/F-12, HEPES (Invitrogen, cat. 11330032), 5% defined fetal bovine serum (HyClone Laboratories Inc., cat. SH30070.03), ITS premix universal culture supplement [insulin (5 microg/mL), transferrin (5 microg/mL), and selenious acid (5 ng/mL)] […]

[1] = second compound 0.1 µM, first compound 0.0316 µM
[2] = second compound 0.1 µM, first compound 0.1 µM
[3] = second compound 0.1 µM, first compound 0.316 µM
[4] = second compound 0.1 µM, first compound 1 µM
[5] = second compound 0.1 µM, first compound 3.16 µM
[6] = second compound 0.1 µM, first compound 10 µM
[7] = second compound 0.316 µM, first compound 0.0316 µM
[8] = second compound 0.316 µM, first compound 0.1 µM
[9] = second compound 0.316 µM, first compound 0.316 µM
[10] = second compound 0.316 µM, first compound 1 µM
[11] = second compound 0.316 µM, first compound 3.16 µM
[12] = second compound 0.316 µM, first compound 10 µM
[13] = second compound 1 µM, first compound 0.0316 µM
[14] = second compound 1 µM, first compound 0.1 µM
[15] = second compound 1 µM, first compound 0.316 µM
[16] = second compound 1 µM, first compound 1 µM
[17] = second compound 1 µM, first compound 3.16 µM
[18] = second compound 1 µM, first compound 10 µM
[19] = second compound 3.16 µM, first compound 0.0316 µM
[20] = second compound 3.16 µM, first compound 0.1 µM
[21] = second compound 3.16 µM, first compound 0.316 µM
[22] = second compound 3.16 µM, first compound 1 µM
[23] = second compound 3.16 µM, first compound 3.16 µM
[24] = second compound 3.16 µM, first compound 10 µM
[25] = second compound 10 µM, first compound 0.0316 µM
[26] = second compound 10 µM, first compound 0.1 µM
[27] = second compound 10 µM, first compound 0.316 µM
[28] = second compound 10 µM, first compound 1 µM
[29] = second compound 10 µM, first compound 3.16 µM
[30] = second compound 10 µM, first compound 10 µM
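Further: spheroids exposed to agents for seven days before viability read.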

SMILES	IC50 (second compound 0.1 µM) [nM]	IC50 (second compound 0.316 µM) [nM]	IC50 (second compound 1 µM) [nM]	IC50 (second compound 3.16 µM) [nM]	IC50 (second compound 10 µM) [nM]	viability, T/C [1] [%]	viability, T/C [2] [%]	viability, T/C [3] [%]	viability, T/C [4] [%]	viability, T/C [5] [%]	viability, T/C [6] [%]	viability, T/C [7] [%]	viability, T/C [8] [%]	viability, T/C [9] [%]	viability, T/C [13] [%]	viability, T/C [14] [%]	viability, T/C [19] [%]	viability, T/C [20] [%]	viability, T/C [25] [%]	viability, T/C [26] [%]	further results
CC1(C)CCC(CN2CCN(c3ccc(C(=O)NS(=O)(=O)c4ccc(NCC5CCOCC5)c([N+](=O)[O-])c4)c(Oc4cnc5[nH]ccc5c4)c3)CC2)=C(c2ccc(Cl)cc2)C1 + CC(CO)NC(=O)c1cc(-c2ccc(Cl)cc2)nn(-c2cnn(C)c2)c1=O	> 10000	> 10000	> 10000	> 10000	> 10000	102	101	91.8	77.1	72.4	61.4	96.2	96.7	89.9	80.6	87.9	71.8	77.6	62.2	63.4	viability, T/C [10]: 82.2%; viability, T/C [11]: 70.9%; viability, T/C [12]: 61.8%; viability, T/C [15]: 92.3%; viability, T/C [16]: 72%; viability, T/C [17]: 68.2%; viability, T/C [18]: 62%; viability, T/C [21]: 68.3%; viability, T/C [22]: 61.3%; viability, T/C [23]: 65.5%; viability, T/C [24]: 54.4%; viability, T/C [27]: 67.6%; viability, T/C [28]: 59.4%; viability, T/C [29]: 61.5%; viability, T/C [30]: 50.6%
COc1cc(Nc2ncc3c(n2)-c2ccc(Cl)cc2C(c2c(F)cccc2OC)=NC3)ccc1C(=O)O + CC(CO)NC(=O)c1cc(-c2ccc(Cl)cc2)nn(-c2cnn(C)c2)c1=O	76.2	79.1	72.8	< 31.6	< 31.6	77	41.7	23.5	23.6	24.7	31	71.7	44.5	27.4	60.1	46.1	49.4	42.5	54.7	40.4	viability, T/C [10]: 25.4%; viability, T/C [11]: 23.8%; viability, T/C [12]: 30.1%; viability, T/C [15]: 27.6%; viability, T/C [16]: 28.6%; viability, T/C [17]: 26.9%; viability, T/C [18]: 29.2%; viability, T/C [21]: 30%; viability, T/C [22]: 25.7%; viability, T/C [23]: 28.2%; viability, T/C [24]: 29.8%; viability, T/C [27]: 32.8%; viability, T/C [28]: 34.9%; viability, T/C [29]: 31.9%; viability, T/C [30]: 39.7%
Cn1ncnc1C1c2n[nH]c(=O)c3cc(F)cc(c23)NC1c1ccc(F)cc1 (stereo not given) + CC(CO)NC(=O)c1cc(-c2ccc(Cl)cc2)nn(-c2cnn(C)c2)c1=O	> 100	91.9	> 100	60.6	18.7	61.4	58.5	–	–	–	–	62.9	48.9	–	61	53.5	52.1	47.3	44.5	43	viability, T/C (second compound 0.1 µM, first compound 0.000316 µM): 93.4%; viability, T/C (second compound 0.1 µM, first compound 0.001 µM): 107%; viability, T/C (second compound 0.1 µM, first compound 0.00316 µM): 87.1%; viability, T/C (second compound 0.1 µM, first compound 0.01 µM): 76.3%; viability, T/C (second compound 0.316 µM, first compound 0.000316 µM): 83.5%; viability, T/C (second compound 0.316 µM, first compound 0.001 µM): 92.8%; viability, T/C (second compound 0.316 µM, first compound 0.00316 µM): 92.7%; viability, T/C (second compound 0.316 µM, first compound 0.01 µM): 81.7%; viability, T/C (second compound 1 µM, first compound 0.000316 µM): 76.8%; viability, T/C (second compound 1 µM, first compound 0.001 µM): 82.2%; viability, T/C (second compound 1 µM, first compound 0.00316 µM): 79.2%; viability, T/C (second compound 1 µM, first compound 0.01 µM): 69.6%; viability, T/C (second compound 3.16 µM, first compound 0.000316 µM): 67.6%; viability, T/C (second compound 3.16 µM, first compound 0.001 µM): 71.9%; viability, T/C (second compound 3.16 µM, first compound 0.00316 µM): 71%; viability, T/C (second compound 3.16 µM, first compound 0.01 µM): 61.5%; viability, T/C (second compound 10 µM, first compound 0.000316 µM): 67.3%; viability, T/C (second compound 10 µM, first compound 0.001 µM): 65.8%; viability, T/C (second compound 10 µM, first compound 0.00316 µM): 60.7%; viability, T/C (second compound 10 µM, first compound 0.01 µM): 53%
NS(=O)(=O)OCC1CC(n2ccc3c(NC4CCc5ccccc54)ncnc32)CC1O (stereo not given) + CC(CO)NC(=O)c1cc(-c2ccc(Cl)cc2)nn(-c2cnn(C)c2)c1=O	534	558	586	450	379	90.3	96.4	66.8	31.1	25.3	28.9	88.5	101	64	77.1	82.2	69.9	67.8	61.5	58.6	viability, T/C [10]: 37.3%; viability, T/C [11]: 21.9%; viability, T/C [12]: 27.1%; viability, T/C [15]: 64.1%; viability, T/C [16]: 38.2%; viability, T/C [17]: 22.9%; viability, T/C [18]: 29.1%; viability, T/C [21]: 55.4%; viability, T/C [22]: 37.3%; viability, T/C [23]: 27.5%; viability, T/C [24]: 26.9%; viability, T/C [27]: 51.5%; viability, T/C [28]: 40.8%; viability, T/C [29]: 29.1%; viability, T/C [30]: 30.5%

Reference: PubChem BioAssay AID1918995 (Molecular Pharmacology Branch, DTP, NCI, 2023)
